# From the METLIN SMRT retention time set (Domingo-Almenara et al. 2019)
# Assay: gradient 5% acetonitrile 3 min, to 50% in 2 min, to 85% in 15 min, held 3 min, 100 µL/min
# Conditions: column: Zorbax Extend-C18 2.1 x 50 mm; eluents: water / acetonitrile, 0.1% formic acid
# Procedure, shortened: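 Retention time was recorded from adduct peaks, which were picked computationally and each inspected manually. Pure standards ran in mixtures of ~100 molecules on HPLC coupled to a quadrupole time-of-flight mass spectrometer, in positive and negative ionization mode, through a Zorbax Extend-C18 column (2.1 × 50 mm, 1.8 μm) at 100 μL/min. Eluents were water and acetonitrile, each with 0.1% formic acid.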
row,RP-LC retention time [s],SMILES
1,709,CC1CCc2c(N3CCC(O)CC3)c(F)cc3c(=O)c(C(=O)O)cn1c23 (stereo not given)
2,617,O=C(O)c1nc(N2CCCC2)c2oc3ccccc3c2n1
3,806,COc1cc(C)c(C)cc1S(=O)(=O)NCC1CCN(c2ncccn2)CC1
4,872,CCCC(C)NC(=O)c1ccc2c(c1)CCCN2S(=O)(=O)CC (stereo not given)
5,669,COc1ccc(C(=O)CC2(O)C(=O)Nc3ccccc32)cc1 (stereo not given)
6,578,CCN1CCN(CCNC(=O)c2ccc3nc(-c4ccc(Cl)cc4)cn3c2)CC1
7,1030,O=C1N(c2ccc(F)cc2)c2ncccc2S(=O)(=O)N1Cc1cccc(F)c1
8,610,COc1ccc(CNC(=O)CN2CCc3[nH]c4c(OC)ccc(Cl)c4c(=O)c3C2)cc1
9,608,O=C(C1CCOC1)N1CCC2(CC1)NCCc1c2[nH]c2ccccc12 (stereo not given)
10,594,O=C(Cc1cccs1)Nc1ccc2c(N3CCCCC3)ncnc2c1
11,1190,Cc1ccc(C)c(-c2nc(-c3ccc4c(c3)oc(=O)n4C(C)C)no2)c1
12,715,CCSc1nnc(NC(=O)C2CCN(S(=O)(=O)c3cn(CC)cn3)CC2)s1
13,1320,O=c1n(Cc2cccc(Cl)c2)nc2c(S(=O)(=O)N3CCOCC3)cccn12
14,849,CCCCNC(=O)C1CCCN(C(=O)Nc2ccc(S(=O)(=O)N(CC)CC)s2)C1 (stereo not given)
15,780,O=C(Nc1nc2c(s1)CN(S(=O)(=O)/C=C/c1ccccc1)CC2)c1cnccn1
16,714,COc1ccc(-c2nc3ncccn3c2Nc2ccc(F)cc2)cc1
17,593,Cc1ccc2nc(NC3=NCN(CCO)CN3)nc(C)c2c1
18,796,CCN1C(=O)c2cccnc2Sc2cc(NC(=O)c3cccs3)ccc21
19,925,CCOC(=O)Cc1csc(NC(=O)c2cc3cc([N+](=O)[O-])ccc3s2)n1
20,863,O=c1ccn(-c2ccc(F)c(F)c2)nc1-c1nc(-c2ccccc2F)no1
21,980,CCOc1ccc(-n2ccnc(NC(=O)Nc3cccc(OC)c3)c2=O)cc1
22,683,Cn1cc(CC(=O)NCc2cc(F)ccc2F)c2cccnc21
23,604,COc1ccccc1NC(=O)N1CCc2nc(CNC(=O)C3CCC3)n(C)c2C1
24,932,CCC(C)c1c(N)n(S(=O)(=O)c2ccc(C)cc2)oc1=O (stereo not given)
25,814,NS(=O)(=O)c1ccc(CCNc2nnnc3c2cnn3-c2ccccc2)cc1

row,RP-LC retention time [s],SMILES
1,617,O=C(CSc1ccc(N2CCCC(C(=O)NC3CC3)C2)nn1)Nc1ccc(F)cc1F (stereo not given)
2,965,CC(=O)Nc1ccc(NC(=O)c2cc3sccc3n2Cc2ccc(Cl)cc2)cc1
3,866,CCCn1cc(CCNC(=O)Nc2cc(F)c(F)c(F)c2)c2cccnc21
4,745,Cc1cc(Cl)ccc1S(=O)(=O)N1CCC(n2cnnc2C)CC1
5,647,CC(C)c1nnc2n1CCN(C(=O)c1nn(C)c3ccccc13)C2
6,1150,O=S(=O)(c1ccc(Cl)cc1)N1CCc2nc(-c3ccc(F)cc3)ncc2C1
7,964,CCOc1ccc(-c2noc(Cn3nc(-c4ccccc4F)ccc3=O)n2)cc1OC
8,675,Fc1ccccc1CN1CCCN(c2ncccc2-c2nc(C3CC3)no2)CC1
9,1230,CCN1C(=O)COc2ccc(-c3noc(/C=C/c4ccc(C)cc4)n3)cc21
10,553,O=C(Nc1ccccc1F)N1CCN(c2cc(-c3ccncc3)[nH]n2)CC1
11,672,Cc1nn(-c2ccc(N3CCOCC3)nn2)c(C)c1CCC(=O)NCCC(C)C
12,1160,O=C(NC1CCCCC1)c1nc(-c2ccc(N3CCCC3)cc2)no1
13,701,Cc1ccccc1NC(=O)Cn1ccc2sccc2c1=O
14,600,CN1C(=O)C2CCCCN2c2ccc(C(=O)NCCCN3CCCCC3)cc21 (stereo not given)
15,636,COc1ccc(N2CCN(C(=O)c3cc(NC(=O)C(C)C)cc4nc(C)ccc34)CC2)cc1
16,822,Cc1nn(CC(=O)NC2CCCCCC2)c(=O)c2nn(-c3ccccc3)c(C)c12
17,1050,Cc1nc(C(=O)N2CCC[C@H]2Cc2nnc(-c3ccccc3)o2)c(-c2ccccc2F)s1
18,1120,Cc1ccsc1C(=O)N1CCN(c2ccc(-c3nc(C)c(C)s3)cn2)CC1
19,756,COC(=O)c1cccc(NC(=O)N2CCN(Cc3nc4ccc(Cl)cc4o3)CC2)c1
20,720,c1ccc(-c2nc(-c3ccc(-n4ccnc4)nc3)no2)cc1
21,596,CCN1CCn2cc(C(=O)NCc3ccc(SC)cc3)nc2C1
22,727,Cc1ccc(NC(=O)C2C(=O)N(CCO)C3(C)CC2c2ccccc2O3)cc1 (stereo not given)
23,1050,Cc1ccc(NC(=O)CSc2cc(N3CCCCC3)ncn2)cc1Cl
24,685,Cc1ccc(C(CC(=O)NCCCN2CCCC2=O)N2Cc3ccccc3C2=O)cc1 (stereo not given)

# Second part, the molecule before the results:
row,SMILES,RP-LC retention time [s]
1,CC1(C(=O)NCc2ccccc2)CCN(S(=O)(=O)c2cccc(C#N)c2)CC1,862
2,NS(=O)(=O)c1ccc(NC(=O)CSc2ccc3ccccc3n2)cc1,736
3,COc1cc(NC(=O)N2CCc3cn(C)c4cccc(c34)C2)cc(OC)c1OC,801
4,CCCNC(=O)c1cc(C)nc2c(Cl)cccc12,753
5,CC(C)C(=O)N1CCN(c2ccc(Nc3c4c(nc5nc(-c6ccccc6)nn35)CCCC4)cc2)CC1,898
6,CCOC(=O)c1cnc2c(OC)cccc2c1NCC1COc2ccccc2O1 (stereo not given),782
7,CCc1nc2cc(-c3noc(-c4ccccc4Br)n3)ccc2o1,1260
8,Cc1ccc(C)c(CNC(=O)C2(c3ccc(NS(C)(=O)=O)cc3)CCCCC2)c1,973
9,COCc1cc(=O)n(CC(=O)Nc2cc(C)cc(C)c2)c(N2CCOCC2)n1,893
10,O=C(NCc1ccncc1)C1CCCN(c2nnc3c(Cl)cccn23)C1 (stereo not given),561
11,CCC(C)C(NC(=O)c1cc(OC)cc(OC)c1)C(=O)Nc1nc2ccccc2[nH]1 (stereo not given),769
12,Cc1ccc(CNC(=O)C2(C)CN(S(=O)(=O)c3ccccc3)CC(=O)N2c2ccc(F)cc2)cc1 (stereo not given),942
13,CCC(C)(C)NC(=O)C1CCCN(S(=O)(=O)c2c[nH]c(C(=O)N3CCCCCC3)c2)C1 (stereo not given),871
14,O=C(CC1CCN(C(=O)Nc2ccccc2F)CC1)N1CCCCC1,709
15,COc1ccc(C(=O)N2CCC(c3noc(-c4ccncc4)n3)C2)cn1 (stereo not given),673
16,CC(=O)c1cc2c(cc1NC(=O)c1cn(Cc3ccc(C)cc3)nn1)OCO2,1030
17,CCCNC(=O)C1CCCN(c2ccc(SCC(=O)Nc3cc(C)ccc3C)nn2)C1 (stereo not given),656
18,Cc1ccc(NS(=O)(=O)c2cc3n(c2)CCCN(C)C3=O)c(F)c1,684
19,Cc1nc(-n2cccc2)sc1C(=O)NCCn1nc(-c2ccco2)ccc1=O,710
20,Cn1nccc1-c1cccc(-c2noc(CNS(=O)(=O)c3ccc(Cl)cc3)n2)c1,902
21,Cc1nc(C)c(C(=O)NCC2Cn3cccc3C(=O)N2C)s1 (stereo not given),594

row,SMILES,RP-LC retention time [s]
1,COc1ccc(CCc2nc(C3CC(=O)N(c4ccc(Cl)cc4)C3)no2)cc1 (stereo not given),1050
2,COc1ccccc1NC(=O)Cn1c(=O)c2cc(-c3ccco3)nn2c2ncccc21,804
3,Cc1nn2c(CNC(=O)Cc3ccsc3)c(-c3ccccc3)nc2s1,866
4,CCCN1CCCCc2cc(C(=O)NC(C)COC)sc21 (stereo not given),907
5,CCn1c(C(=O)N2CCN(c3ccccc3F)CC2)cc2c(-c3cccs3)nn(-c3ccccc3)c21,1270
6,CCCn1cc(C(=O)NCCC(C)C)c2nn(-c3ccccc3)c(=O)c-2c1,968
7,O=C(N1CCOCC1)C1(c2cc(-c3ccco3)on2)CC1,673
8,COc1ccc(C(C)NC(=O)c2cn3ccc(C)cc3n2)cc1 (stereo not given),645
9,COc1ccc2c(c1)C1(CCN(S(=O)(=O)c3ccc(Cl)cc3)C1)C(=O)N2 (stereo not given),894
10,COc1cc(NC(=O)Cn2c(N3CCOCC3)nc(C)cc2=O)cc(OC)c1,655
11,CCCCNC(=O)Cn1nc2c(N3CCSCC3)nccn2c1=O,728
12,Cc1ccc(N(C(=O)Cc2ccccc2)C2C=CS(=O)(=O)C2)cc1Cl (stereo not given),869
13,CC(=O)Nc1ccc(C2(C(=O)NCc3cccc(F)c3)CCC2)cc1,751
14,O=C(c1cc2ccccc2[nH]1)N1CCN(c2cc(-c3ccc(Cl)cc3)[nH]n2)CC1,923
15,O=C(NCCN1CCOCC1)c1csc(N2CCN(c3ccc(F)cc3)CC2)n1,664
16,CC(=O)Nc1nc(N2CCC(C(=O)NCc3ccccc3)CC2)sc1C(=O)N1CCCC1,699
17,Cc1sc2ccn(Cc3ccc(F)cc3)c(=O)c2c1C(=O)NCc1cccnc1,632
18,O=C(c1cccc(Cl)c1)N1CCN(c2cnn3c(C4CC4)nnc3c2)CC1,593
19,O=C(CCc1conc1-c1ccc(F)cc1)NCc1ccc2c(c1)OCO2,848
20,Cc1sc(NC(=O)c2ccco2)nc1-c1ccc2c(c1)N(C)C(=O)CO2,844
